The values below are quoted from earlier work in patent publication US20070003642A1 (priority 2002, published 2007).

On to isoflavones, for which the “solubility of isoflavones itself” value (stated as natural solubility, given as explanation) was “about 5 mg/L”. Turning to `O=c1c(-c2ccc(O)cc2)coc2cc(O[C@@H]3O[C@H](CO)[C@@H](O)[C@H](O)[C@H]3O)ccc12` [daidzin], the solubility of daidzin result (background statement) is on record as “about 3.3 mg/100 ml”.
